Measurements from patent publication US4882316A, “Pyrimidine derivatives” (Hoffmann-La Roche Inc., priority 1986, dated 1989).

biological target: herpes simplex virus type 2 (HSV-2) thymidine kinase (Human herpesvirus 2, UniProt P89446); experiment: inhibition of herpes simplex virus type 2 (HSV-2) thymidine kinase in vitro (3H-thymidine phosphorylation); type: biochemical; settings: thymidine kinase extract; 50 mM Tris-HCl, pH 8; 5 mM MgCl2; 5 mM ATP; 0.3 μM 3H-thymidine; 37° C., 30 minutes; read-out: IC50 (concentration of the test compound which inhibits enzyme activity by 50%)
Sequence (P89446 whole entry): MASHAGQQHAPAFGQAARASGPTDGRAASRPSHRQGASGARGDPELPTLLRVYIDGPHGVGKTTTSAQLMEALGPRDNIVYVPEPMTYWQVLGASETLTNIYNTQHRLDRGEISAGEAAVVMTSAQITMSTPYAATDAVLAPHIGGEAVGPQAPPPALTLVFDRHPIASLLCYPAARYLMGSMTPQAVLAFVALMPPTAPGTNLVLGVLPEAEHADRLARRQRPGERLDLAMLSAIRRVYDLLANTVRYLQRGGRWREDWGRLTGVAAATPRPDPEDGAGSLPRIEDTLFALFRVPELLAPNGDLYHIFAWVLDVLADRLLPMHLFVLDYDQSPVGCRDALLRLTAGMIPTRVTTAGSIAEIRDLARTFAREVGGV
Description: The assay mixture contains 50 mM Tris-HCl, pH 8, 5 mM magnesium chloride, 5 mM ATP, 0.3 μM ^3 H-thymidine (50 Ci/mmol), suitably diluted thymidine kinase extract and various concentrations of the test compounds in a total volume of 100 μl. Assays are incubated at 37° C. for 30 minutes and the reaction is terminated by immersion in a boiling water bath for 2 minutes. 85 μl aliquots from each assay are then dried on cellulose paper discs and the unphosphorylated ^3 H-thymidine is removed by washing in 4 mM ammonium formate. The radioactivity remaining bound to the discs is then measured by scintillation spectrophotometry. The degree of inhibition at each concentration of the test compound is expressed as a percentage of a control reaction. The IC50 value, namely the concentration of the test compound which inhibits enzyme activity by 50%, is then calculated. The results obtained with representative compounds of formula I are compiled in the following Table: […]

| IC50 [nM] | SMILES |
| --- | --- |
| 16 | CCc1cn([C@H]2C[C@H](O)[C@@H](CCC(O)Cc3c(Cl)cccc3Cl)O2)c(=O)[nH]c1=O (mixture of isomers) [Example 5, 5'-[3-(2,6-dichlorophenyl)-2(RS)-hydroxypropyl]-2',5'-dideoxy-5-ethyluridine] |
| 2.4 | CCc1cn([C@H]2C[C@H](O)[C@@H](CCC(=O)Cc3c(Cl)cccc3Cl)O2)c(=O)[nH]c1=O [Example 3, 5'-[3-(2,6-dichlorophenyl)-2-oxopropyl]-2',5'-dideoxy-5-ethyluridine] |
| 600 | CCc1cn([C@H]2C[C@H](O)[C@@H](CS(=O)(=O)Cc3ccccc3)O2)c(=O)[nH]c1=O [Example 9, 5'-benzylsulphonyl-2',5'-dideoxy-5-ethyluridine] |
| 170 | CCc1cn([C@H]2C[C@H](O)[C@@H](CCCCc3ccccc3)O2)c(=O)[nH]c1=O [Example 7, 2',5'-dideoxy-5-ethyl-5'-(3-phenylpropyl)uridine] |
| 72 | CCc1cn([C@H]2C[C@H](O)[C@@H](CSCc3c(Cl)cccc3Cl)O2)c(=O)[nH]c1=O [Example 14c, 5'-(2,6-dichlorobenzylthio)-2',5'-dideoxy-5-ethyluridine] |
